Assay results as given in paper PMC7662656, “Pyrazole Incorporated New Thiosemicarbazones: Design, Synthesis and Investigation of DPP-4 Inhibitory Effects” (Molecules, 2020).

Legend:
DPP-4 = target: T1, DPP-4 (Homo sapiens, UniProt P27487); experiment: DPP-4 Inhibitor Screening Assay (fluorescence-based, Gly-Pro-AMC substrate); format: biochemical; details: mean ± SD; for inhibition at 100 µM: compound at 100 µM, triplicate; for IC50: five concentrations 10^−1 to 10^−5 µM, read-out: IC50 for DPP-4 inhibition
T1 construct: purchased Cayman Chemicals, Ann Arbor, MI, USA
Protocol: This assay kit allows DPP-4 measurement using Gly-Pro-Aminomethylcoumarin (AMC) as a fluorogenic substrate. The free AMC group is released through the cleavage of the peptide bond by DPP leading to fluorescence that can be examined using appropriate excitation and emission wavelengths. Briefly, the experiment was performed triplicate in a white flat bottom 96 well plate. Thirty microlitres of assay buffer, 10 µL of DPP-4 enzyme, 10 µL of dimethyl sulfoxide (DMSO), and 50 µL of DPP substrate were added to 100% initial activity wells. Forty microlitres of assay buffer, 10 µL of DMSO, and 50 µL of DPP substrate were added to background wells. Thirty microlitres of assay buffer, 10 µL of DPP-4 enzyme, 10 µL of sample, and 50 µL of DPP substrate were added to inhibitor wells. […] The plate was incubated for 30 min at 37 °C, and fluorescence measurements were analyzed using an excitation wavelength of 360/40 nm and an emission wavelength of 460/40 nm in a multi-mode plate reader (Synergy HTX S1LFA, BioTek Instruments, Winooski, VT, USA). All assays were performed in triplicate. The fluorescence of the background wells was subtracted from all other wells before the calculations. The per cent inhibition was determined by the following formula in equation 1:Inhibition% = [(Initial activity − Inhibitor)/Initial Activity] × 100(1)

[1] = MTT cytotoxicity assay on NIH/3T3 cells; format: cell-based; details: mouse, NIH/3T3 mouse embryonic fibroblast cells, 24 h incubation, 31.25-500 µM, read-out: IC50 cytotoxicity towards NIH/3T3 cell line
Protocol: NIH/3T3 mouse embryonic fibroblast (normal) cells (ATCC® CRL-1658™) were grown in RPMI 1640 medium (Sigma-Aldrich, St. Louis, MO, USA) supplemented with 2 mM L-glutamine (Gibco, Paisley, UK), 10% fetal bovine serum (Gibco, Paisley, UK) and 1% penicillin/streptomycin (Gibco, Paisley, UK) at 37 °C in a humidified incubator with a 5% CO2 atmosphere. Compounds 2a–o were dissolved in DMSO (Sigma-Aldrich, St. Louis, MO, USA) and diluted to required concentrations with a fresh medium. The control group (solvent control) was prepared with a medium containing 0.1% DMSO. […]
In order to determine IC50 concentrations of compounds 2a–o, cell viability was determined by MTT assay. […] The absorbance values were measured at 540 nm using a Cytation 3 Cell Imaging Multi-Mode Reader (BioTek, Winooski, VT, USA). Cell survival rates were expressed as the percentage of the DMSO (0.1%) solvent control and IC50 concentrations were calculated according to the analysis result.

T1 sequence (P27487 whole entry): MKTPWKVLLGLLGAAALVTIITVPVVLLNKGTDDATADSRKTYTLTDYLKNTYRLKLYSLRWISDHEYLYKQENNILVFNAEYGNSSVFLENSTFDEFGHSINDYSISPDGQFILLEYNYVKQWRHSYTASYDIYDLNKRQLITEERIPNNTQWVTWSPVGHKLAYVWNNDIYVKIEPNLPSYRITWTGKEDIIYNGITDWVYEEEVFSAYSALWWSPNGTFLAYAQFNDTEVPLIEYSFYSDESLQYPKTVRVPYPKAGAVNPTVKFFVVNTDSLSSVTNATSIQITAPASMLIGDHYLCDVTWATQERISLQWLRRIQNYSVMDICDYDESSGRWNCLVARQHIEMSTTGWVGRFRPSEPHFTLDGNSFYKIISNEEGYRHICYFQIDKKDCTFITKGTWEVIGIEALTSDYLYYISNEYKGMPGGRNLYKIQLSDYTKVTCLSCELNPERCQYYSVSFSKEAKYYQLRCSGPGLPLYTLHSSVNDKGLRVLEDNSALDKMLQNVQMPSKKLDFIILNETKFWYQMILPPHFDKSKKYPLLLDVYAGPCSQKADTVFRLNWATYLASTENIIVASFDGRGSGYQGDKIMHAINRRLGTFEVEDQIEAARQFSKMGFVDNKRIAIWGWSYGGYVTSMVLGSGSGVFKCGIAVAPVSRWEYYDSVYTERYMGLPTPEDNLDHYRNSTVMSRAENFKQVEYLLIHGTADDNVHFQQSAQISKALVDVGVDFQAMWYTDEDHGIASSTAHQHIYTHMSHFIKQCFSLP

| inhibition at 100 µM (DPP-4) [%] | IC50 (DPP-4) [nM] | Structure (SMILES) | IC50 at 24 h [1] [nM] |
| --- | --- | --- | --- |
| 20.7 ± 1.82 |  | S=C(N/N=C/c1ccccc1)Nc1ccc(-n2cccn2)cc1 [Compound 2a, [4-(1H-Pyrazol-1-yl)phenyl]-1-(benzylidene)thiosemicarbazide] |  |
| 35.5 ± 1.75 |  | O=[N+]([O-])c1ccc(/C=N/NC(=S)Nc2ccc(-n3cccn3)cc2)cc1 [Compound 2b, [4-(1H-Pyrazol-1-yl)phenyl]-1-(4-nitrobenzylidene)thiosemicarbazide] |  |
| 38.4 ± 2.14 |  | S=C(N/N=C/c1ccc(Cl)cc1)Nc1ccc(-n2cccn2)cc1 [Compound 2e, [4-(1H-Pyrazol-1-yl)phenyl]-1-(4-chlorobenzylidene)thiosemicarbazide] |  |
| 53.2 ± 3.1 |  | Cc1ccc(/C=N/NC(=S)Nc2ccc(-n3cccn3)cc2)cc1 [Compound 2h, [4-(1H-Pyrazol-1-yl)phenyl]-1-(4-methylbenzylidene)thiosemicarbazide] |  |
| 47.4 ± 1.29 |  | CC(C)c1ccc(/C=N/NC(=S)Nc2ccc(-n3cccn3)cc2)cc1 [Compound 2m, [4-(1H-Pyrazol-1-yl)phenyl]-1-(4-isopropylbenzylidene)thiosemicarbazide] |  |
| 28.6 ± 1.76 |  | CC(C)(C)c1ccc(/C=N/NC(=S)Nc2ccc(-n3cccn3)cc2)cc1 [Compound 2n, [4-(1H-Pyrazol-1-yl)phenyl]-1-(4-tert-butylbenzylidene)thiosemicarbazide] |  |

Continued, compound first:

| Structure (SMILES) | inhibition at 100 µM (DPP-4) [%] | IC50 (DPP-4) [nM] | IC50 at 24 h [1] [nM] |
| --- | --- | --- | --- |
| N#Cc1ccc(/C=N/NC(=S)Nc2ccc(-n3cccn3)cc2)cc1 [Compound 2c, [4-(1H-Pyrazol-1-yl)phenyl]-1-(4-cyanobenzylidene)thiosemicarbazide] | 28 ± 1.63 |  |  |
| Fc1ccc(/C=N/NC(=S)Nc2ccc(-n3cccn3)cc2)cc1 [Compound 2d, [4-(1H-Pyrazol-1-yl)phenyl]-1-(4-fluorobenzylidene)thiosemicarbazide] | 27.3 ± 2.03 |  |  |
| S=C(NN=Cc1ccc(Br)cc1)Nc1ccc(-n2cccn2)cc1 [Compound 2f, 4-[4-(1H-pyrazol-1-yl)phenyl]-1-(4-bromobenzylidene)thiosemicarbazide] |  | 1.27 ± 0.264 | > 500000 |
| FC(F)(F)c1ccc(/C=N/NC(=S)Nc2ccc(-n3cccn3)cc2)cc1 [Compound 2g, [4-(1H-Pyrazol-1-yl)phenyl]-1-(4-trifluoromethylbenzylidene)thiosemicarbazide] | > 60 | 4.78 ± 0.296 |  |
| COc1ccc(/C=N/NC(=S)Nc2ccc(-n3cccn3)cc2)cc1 [Compound 2i, [4-(1H-Pyrazol-1-yl)phenyl]-1-(4-methoxybenzylidene)thiosemicarbazide] | > 60 | 43.31 ± 0.372 |  |
| CS(=O)(=O)c1ccc(/C=N/NC(=S)Nc2ccc(-n3cccn3)cc2)cc1 [Compound 2j, [4-(1H-Pyrazol-1-yl)phenyl]-1-(4-methylsulfonylbenzylidene)thiosemicarbazide] | 59.8 ± 1.13 |  |  |
| CSc1ccc(/C=N/NC(=S)Nc2ccc(-n3cccn3)cc2)cc1 [Compound 2k, [4-(1H-Pyrazol-1-yl)phenyl]-1-(4-methylthiobenzylidene)thiosemicarbazide] | > 60 | 22.7 ± 0.301 |  |
| CN(C)c1ccc(/C=N/NC(=S)Nc2ccc(-n3cccn3)cc2)cc1 [Compound 2l, [4-(1H-Pyrazol-1-yl)phenyl]-1-(4-dimethylaminobenzylidene)thiosemicarbazide] | 57.3 ± 1.04 |  |  |
| S=C(N/N=C/c1ccc(-c2ccccc2)cc1)Nc1ccc(-n2cccn2)cc1 [Compound 2o, [4-(1H-Pyrazol-1-yl)phenyl]-1-(4-phenylbenzylidene)thiosemicarbazide] | > 60 | 18.1 ± 0.311 |  |
